# Laboratory results from ChEMBL document CHEMBL5357012, “Dual N6/C7-Substituted 7-Deazapurine and Tricyclic Ribonucleosides with Affinity for G Protein-Coupled Receptors” (ACS Med Chem Lett, 2024).
# Columns and labels:
# [1] = biological target: 5-hydroxytryptamine receptor 2B (Homo sapiens, UniProt P41595)
# Description: Inhibition of human 5-HT2B receptor assessed as inhibition constant by microbeta scintillation counting method
# [2] = biological target: Kappa-type opioid receptor (Homo sapiens, UniProt P41145); experiment: Inhibition of human KOR assessed as inhibition constant by microbeta scintillation counting method
# Kappa-type opioid receptor, sequence (P41145 whole entry): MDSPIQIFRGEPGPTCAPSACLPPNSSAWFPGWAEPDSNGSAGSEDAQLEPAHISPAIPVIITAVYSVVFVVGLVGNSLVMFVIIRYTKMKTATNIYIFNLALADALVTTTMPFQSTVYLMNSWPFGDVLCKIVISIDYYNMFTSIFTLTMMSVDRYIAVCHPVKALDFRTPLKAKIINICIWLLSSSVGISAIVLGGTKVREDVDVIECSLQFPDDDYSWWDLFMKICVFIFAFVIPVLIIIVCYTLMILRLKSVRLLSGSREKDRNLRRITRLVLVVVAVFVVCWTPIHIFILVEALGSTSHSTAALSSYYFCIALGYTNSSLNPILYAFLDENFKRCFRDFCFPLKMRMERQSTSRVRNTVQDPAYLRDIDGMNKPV
# [3] = Cytotoxicity against human MRC5 cells assessed as reduction in cell viability measured after 3 days by resazurin dye based fluorimetric analysis
# 5-hydroxytryptamine receptor 2B, sequence (P41595 whole entry): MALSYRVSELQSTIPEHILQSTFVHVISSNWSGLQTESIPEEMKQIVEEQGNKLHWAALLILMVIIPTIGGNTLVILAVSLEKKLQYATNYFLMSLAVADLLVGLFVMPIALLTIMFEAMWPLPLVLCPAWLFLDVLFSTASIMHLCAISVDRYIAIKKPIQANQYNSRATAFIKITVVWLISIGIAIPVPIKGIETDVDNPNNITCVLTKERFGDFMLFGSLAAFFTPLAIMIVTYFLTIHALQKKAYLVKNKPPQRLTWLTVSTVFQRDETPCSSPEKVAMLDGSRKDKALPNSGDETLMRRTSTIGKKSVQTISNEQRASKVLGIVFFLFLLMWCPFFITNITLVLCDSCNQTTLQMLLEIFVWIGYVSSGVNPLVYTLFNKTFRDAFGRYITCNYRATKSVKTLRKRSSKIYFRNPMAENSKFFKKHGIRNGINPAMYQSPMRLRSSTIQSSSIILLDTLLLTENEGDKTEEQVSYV
SMILES,Ki [1] [nM],Ki [2] [nM],CC50 at 72 h [3] [nM]
C[C@H](Nc1ncnc2c1c(C(F)(F)F)cn2[C@@H]1O[C@H](CO)[C@@H](O)[C@H]1O)c1ccccc1,–,1900,–
OC[C@H]1O[C@@H](n2cc(C(F)(F)F)c3c(NCc4ccc(Cl)cc4)ncnc32)[C@H](O)[C@@H]1O,830,–,–
OC[C@H]1O[C@@H](n2cc(C(F)(F)F)c3c(NCc4cccc(Cl)c4)ncnc32)[C@H](O)[C@@H]1O,620,–,> 64000
C[C@@H](Nc1ncnc2c1c(C(F)(F)F)cn2[C@@H]1O[C@H](CO)[C@@H](O)[C@H]1O)c1ccccc1,710,–,–

# Further compounds by falling Ki [1], results first:
Ki [1] [nM],Ki [2] [nM],SMILES,CC50 at 72 h [3] [nM]
1200,–,OC[C@H]1O[C@@H](n2cc(C(F)(F)F)c3c(NCc4ccccc4F)ncnc32)[C@H](O)[C@@H]1O,> 64000
550,–,OC[C@H]1O[C@@H](n2cc(C(F)(F)F)c3c(NCc4ccccc4Cl)ncnc32)[C@H](O)[C@@H]1O,–
500,1800,OC[C@H]1O[C@@H](n2cc(C(F)(F)F)c3c(NCc4ccccc4)ncnc32)[C@H](O)[C@@H]1O,–
